Biological target: T1, hTAS1R1 E301A/rTAS1R3 (UniProt Q7RTX1+Q923K1, E301A)
T1 construct: UniProtKB number Q7RTX1–1); The cDNA coding region of rTAS1R3 was synthesized with optimized-codon usage for human expression; expressed in transfected cells; host or cells: HEK293T/17
T1 sequence (Q7RTX1 21-841 E301A): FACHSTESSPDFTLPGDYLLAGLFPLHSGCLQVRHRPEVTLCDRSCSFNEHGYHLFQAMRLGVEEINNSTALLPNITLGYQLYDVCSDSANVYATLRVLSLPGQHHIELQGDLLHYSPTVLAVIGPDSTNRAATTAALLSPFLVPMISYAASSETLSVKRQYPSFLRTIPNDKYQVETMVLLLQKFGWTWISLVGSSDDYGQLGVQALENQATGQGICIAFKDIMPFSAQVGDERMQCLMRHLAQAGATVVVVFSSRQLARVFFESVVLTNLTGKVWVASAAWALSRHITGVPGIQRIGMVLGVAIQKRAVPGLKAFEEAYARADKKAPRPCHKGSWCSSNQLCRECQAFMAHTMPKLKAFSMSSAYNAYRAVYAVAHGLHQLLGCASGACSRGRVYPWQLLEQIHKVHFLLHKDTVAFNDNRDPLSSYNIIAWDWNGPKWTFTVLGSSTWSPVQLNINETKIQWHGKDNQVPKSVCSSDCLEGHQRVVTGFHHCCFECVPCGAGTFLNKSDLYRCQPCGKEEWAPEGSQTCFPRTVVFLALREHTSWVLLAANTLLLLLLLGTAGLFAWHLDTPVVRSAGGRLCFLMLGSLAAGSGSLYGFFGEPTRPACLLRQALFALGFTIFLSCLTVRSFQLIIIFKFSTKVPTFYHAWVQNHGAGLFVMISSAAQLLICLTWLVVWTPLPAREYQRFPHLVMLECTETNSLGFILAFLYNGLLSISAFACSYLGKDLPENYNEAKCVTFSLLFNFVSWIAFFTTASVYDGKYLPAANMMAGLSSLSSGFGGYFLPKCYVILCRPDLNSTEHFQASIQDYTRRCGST
T1 sequence (Q923K1 21-858): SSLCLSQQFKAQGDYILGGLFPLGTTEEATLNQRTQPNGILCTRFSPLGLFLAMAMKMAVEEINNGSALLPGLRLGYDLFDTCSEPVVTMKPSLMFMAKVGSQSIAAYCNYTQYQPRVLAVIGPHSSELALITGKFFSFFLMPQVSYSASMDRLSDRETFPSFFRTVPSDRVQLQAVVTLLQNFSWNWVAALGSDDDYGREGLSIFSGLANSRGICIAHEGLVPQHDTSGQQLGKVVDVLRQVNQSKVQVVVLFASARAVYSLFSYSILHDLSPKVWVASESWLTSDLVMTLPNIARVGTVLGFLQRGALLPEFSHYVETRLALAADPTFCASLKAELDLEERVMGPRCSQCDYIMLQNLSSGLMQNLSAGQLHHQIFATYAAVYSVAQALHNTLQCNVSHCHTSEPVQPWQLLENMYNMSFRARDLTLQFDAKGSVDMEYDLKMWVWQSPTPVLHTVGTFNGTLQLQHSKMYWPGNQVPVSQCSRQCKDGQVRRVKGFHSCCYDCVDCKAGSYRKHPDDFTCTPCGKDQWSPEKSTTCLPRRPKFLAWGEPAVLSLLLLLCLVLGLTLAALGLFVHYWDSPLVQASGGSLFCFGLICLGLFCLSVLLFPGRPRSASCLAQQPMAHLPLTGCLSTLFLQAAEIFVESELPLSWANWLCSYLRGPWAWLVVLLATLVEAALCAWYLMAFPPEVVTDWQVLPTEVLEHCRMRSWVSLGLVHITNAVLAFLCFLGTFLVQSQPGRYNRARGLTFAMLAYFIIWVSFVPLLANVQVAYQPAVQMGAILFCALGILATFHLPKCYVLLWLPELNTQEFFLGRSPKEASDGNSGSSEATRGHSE
Test: cell-based
Format: cell-based, human, rat
Settings: for response to the agonist alone, vs WT: E301A
Source text: Chimeric Gα proteins, such as Gα16Gust44, Gα16Gi3 or Gα15i2, are widely used in the functional expression of TAS1R receptors ([Backes et al., 2015]; [Suess et al., 2015]; [Toda et al., 2021], [Toda et al., 2013], [Toda et al., 2018]; [Zhang et al., 2008]). Chimeric Gα15i2 (([Toda et al., 2013]), Supplementary data) was generated by replacing the last five residues of the C-terminal tail of rat Gα15i2 (EINLL) (UniProt number G3V6N8; https://www.uniprot.org/uniprot/) with the counterpart sequence from human GNAI2 (DCGLF) (UniProt number P04899-1) and cloning into the pcDNA3.1/Hygro vector (Invitrogen, Thermo Fisher Scientific, Illkirch, France) between the HindIII and NotI restriction sites, resulting in the plasmid pcDNA3.1-Gα15i2. Chimeric Gα16Gust44 construct have already been reported ([Raliou et al., 2011]). Briefly, Gα16Gust44 was generated by replacing the C-terminal of Gα16 with the C-terminal 44 residues of gustducin. As previously described, hTAS1R1 was amplified from human fungiform papillae cDNA and cloned and inserted into pcDNA3 (Invitrogen), generating pcDNA3-TAS1R1-WT (wild-type) ([Raliou et al., 2011]). […] The cDNA coding region of rTAS1R3 was synthesized with optimized-codon usage for human expression (Genewiz) and was cloned and inserted into the mammalian pcDNA4/myc-HisA (Invitrogen) expression vector between the EcoRI and NotI restriction sites, resulting in the plasmid pcDNA4-rTAS1R3. […] The sequence integrity of all the plasmid constructs was verified via automated DNA sequencing (Genewiz).
The hTAS1R1 mutants were co-expressed with the rTAS1R3 subunit in HEK293 cells. […] As a control, the functionality of the mutated receptors was checked after stimulation with S807 (Fig. S8), which interacts with TAS1R1-TMD ([Zhang et al., 2008]).

| SMILES | response to the agonist alone, vs WT | EC50 [mM] |
| --- | --- | --- |
| N[C@@H](CCC(=O)O)C(=O)O [L-Glu, L-glutamic acid, reference compound] | completely suppressed | – |
| N[C@@H](CCC(=O)N[C@@H](CS)C(=O)NCC(=O)O)C(=O)O [GSH, γ-L-glutamyl-L-cysteinyl-glycine] | fully abolished | > 30 |
